Patent US10702506B2, “Small molecule inhibitors of pendrin ion exchange and pharmaceutical compositions” (THE REGENTS OF THE UNIVERSITY OF CALIFORNIA, priority 2016, dated 2020)

Experiments:
[1] = system: HBE and CFBE cell cultures; test: ASL pH by BCECF-dextran ratio imaging in HBE and CFBE cultures; format: cell-based, human; details: 25 μM, 4 hours
Method: To investigate the possible involvement of pendrin in ASL pH regulation, fluorescence ratio imaging was done of the ASL in HBE and CFBE cultures after staining with BCECF-dextran. In the absence of IL-13-treatment, ASL pH was ˜0.3 pH units more acidic in CFBE than HBE cultures (FIG. 5C; pH ˜7.4 vs. ˜7.1), in agreement with prior studies showing relative ASL acidity in CF.
ASL pH was measured using the pH-sensitive fluorophore BCECF conjugated to 10 kDa dextran (Invitrogen, Carlsbad, Calif.) as described, which was added 4-6 h prior to measurement (20 μl of 0.5 mg/ml in PBS). Cell inserts were incubated in HCO3^−-containing buffer (5% CO2 environment) and the ASL was imaged using a SMZ stereoscopic microscope (Nikon, Melville, N.Y.) equipped with a C9100 EM-CCD, Exfo XCite light source and BCECF filters (440/10X, 490/20X, 535/25M, Chroma, Bellows Falls, Vt.). In some experiments ASL pH was measured after PDSinh-A01 treatment, as described for ASL depth measurements. To relate BCECF fluorescence to pH, a calibration curve over the quasi-linear range of BCECF sensitivity was generated.

[2] = system: HBE and CFBE cell cultures; test: ASL depth by confocal imaging of rhodamine B-dextran in HBE and CFBE cultures; format: cell-based, human; details: 25 μM, 4-6 hours
Method: ASL depth was measured in HBE and CFBE cell cultures under basal conditions and with chronic IL-13-treatment. […] Treatment of HBE and CFBE cell cultures with IL-13 produced a significant increase in ASL depth to ˜16 μm. Remarkably, treatment of IL-13-treated HBE and CFBE cell cultures with PDSinh-A01 produced a significant further increase in ASL depth of ˜8 μm (FIG. 6A, right; summary in FIG. 6B). Pendrin inhibition thus causes ASL hydration in IL-13-treated HBE and CFBE cell cultures, providing pharmacological evidence for pendrin as a key regulator of ASL hydration in airway cell cultures exposed to an inflammatory stimulant.
ASL depth was measured by confocal imaging of rhodamine B-dextran fluorescence (20 μl of 0.1 mg/ml in PBS) applied 4-6 h prior to measurement. Scanning confocal microscopy was done using an upright Nikon EZ-C1 confocal microscope equipped with a LUMplan FL N 60×/1.00w objective (Olympus, Waltham, Mass.). […] In some experiments ASL depth was measured after treatment with 25 μM PDSinh-A01 in the culture medium for 4-6 hours. ASL depth was measured using a multi-point histogram method in which each confocal z-stack was fitted to a quadratic function, as described and validated previously.

murine pendrin = target: T1, murine pendrin (Mus musculus, UniProt Q9R155); test: BCECF intracellular pH assay of Cl−/HCO3− exchange in FRT cells expressing murine pendrin; format: cell-based
T1 construct: expressed in transfected cells
T1 sequence (Q9R155 1-780): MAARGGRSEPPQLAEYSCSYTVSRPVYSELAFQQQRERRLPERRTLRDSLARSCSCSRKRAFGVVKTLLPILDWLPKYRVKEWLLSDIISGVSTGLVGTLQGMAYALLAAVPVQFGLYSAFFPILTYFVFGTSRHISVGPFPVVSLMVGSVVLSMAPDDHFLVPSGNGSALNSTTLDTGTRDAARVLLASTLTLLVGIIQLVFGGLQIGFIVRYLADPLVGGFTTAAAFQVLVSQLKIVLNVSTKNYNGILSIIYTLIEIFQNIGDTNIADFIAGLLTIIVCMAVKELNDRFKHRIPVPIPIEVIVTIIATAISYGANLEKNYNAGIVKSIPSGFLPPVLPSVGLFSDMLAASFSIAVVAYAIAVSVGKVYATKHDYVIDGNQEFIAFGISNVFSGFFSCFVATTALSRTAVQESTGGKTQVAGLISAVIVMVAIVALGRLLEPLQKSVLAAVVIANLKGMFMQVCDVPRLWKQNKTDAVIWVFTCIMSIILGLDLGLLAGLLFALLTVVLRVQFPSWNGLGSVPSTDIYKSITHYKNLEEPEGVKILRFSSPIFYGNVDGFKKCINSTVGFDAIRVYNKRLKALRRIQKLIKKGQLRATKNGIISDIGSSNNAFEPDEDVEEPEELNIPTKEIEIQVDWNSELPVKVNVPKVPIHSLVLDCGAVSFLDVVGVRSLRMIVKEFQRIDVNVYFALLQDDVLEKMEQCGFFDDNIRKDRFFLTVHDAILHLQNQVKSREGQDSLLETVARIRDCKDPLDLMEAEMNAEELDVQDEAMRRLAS
Method: Pendrin-mediated exchange of Cl^− with SCN^−, I^− or NO3^− was measured from the kinetics of YFP fluorescence quenching in a BMG FLUOstar Omega platereader. Pendrin/YFP-expressing FRT cells were washed in PBS and transport measured following a 70-mM gradient of SCN^−, I^− or NO3^−. Pendrin-mediated Cl^−/HCO3^− exchange was measured from the kinetics of cytoplasmic pH (pHi) using BCECF-AM (Invitrogen). Pendrin-expressing FRT cells in HCO3^−-containing buffer (in mM: 120 NaCl, 5 KCl, 1 CaCl2), 1 MgSO4, 10 glucose, 5 Hepes, 25 NaHCO3^−; pH 7.4; 95% O2/5% CO2 equilibrated) were exposed to a Cl^−-free buffer (gluconate replacing Cl^−) to drive Cl^− efflux and HCO3^− influx.
Pendrin-mediated Cl^−/HCO3^− exchange was measured from the kinetics of intracellular pH, using BCECF fluorescence as a cytoplasmic pH sensor, following extracellular addition of gluconate in HCO3^−/CO2-containing buffer to drive Cl-efflux, HCO3^− influx, and consequent cytoplasmic alkalinization (FIG. 7D). […] YFP-based fluorescence quenching assays in COS-7 cells were established to measure AE1 (Slc4a1), CLD (Slc26a3) and NCC (Slc12a3) activities. […] A YFP-V163S fluorescence quenching assay in FRT cells was used to measure NKCC1 activity in which cells equilibrated gluconate-substituted PBS buffer were exposed to a Cl^−-containing solution containing 75 mM Na^+ and 75 mM K^+.

With Cn1nc(COc2cccc(F)c2)c2c1CCN(C(=O)Nc1ccc(Cl)cc1)C2 [PDSinh-A01] the “effect on ASL pH, IL-13-treated cultures” value ([1]; IL-13-treated) was “did not alter ASL pH”, the “effect on ASL pH, basal conditions” value ([1]; no IL-13) was “did not alter ASL pH” and the “further increase in ASL depth, IL-13-treated cultures” value ([2]; IL-13-treated) was ~8 μm. For the same compound, the “effect on ASL depth, basal conditions” value ([2]; no IL-13) was “did not significantly change”.

For Cc1n[nH]c(-c2cc(S(=O)(=O)NC3CCCc4ccccc43)c(C)s2)c1C (centres unmarked) [PDSinh-C01], the IC50 (murine pendrin) was ~1200 nM.
